According to patent US20090275667A1, “USE OF ALLICIN AS PRESERVATIVE, AS DISINFECTANT, AS ANTIMICROBIAL OR AS BIOCIDAL AGENT” (Stone Island Holdings Ltd, priority 2003, published 2009):

Legend:
Type in all cases: cell-based
[1] = system: Paenibacillus larvae subsp. larvae; test: MIC by broth microdilution, bee pathogens; conditions: range 1000 ppm to 0.25 ppm
Excerpt: (§1) We tested allicia (Allisure™ Liquid) activity against several species of entomopathogenic bacteria (Paenibacillus larvae subsp. larvae, Paenibacillus larvae subsp. pulvifaciens) and fungi (Ascosphaera apis and Ascosphaera aggregata) using broth microdilution method to determine minimum inhibitory concentration (MIC) and the agar diffusion test (Kirby-Bauer) to determine zone of inhibition. Bacterial spores were isolated from the diseased honey bee larval samples. A small aliquot of heat-treated bacterial spores was suspended in 100 μl of phosphate buffered saline-pH 7.2 (PBS) and plated on semi-selective J. Agar medium, containing Nalidixic and Pipemidic acid (Alippi, A M (1995) Detection of Bacillus larvae spores in Argentinian honeys by using a semi-selective medium. Microbiologia 1995 11(3): 343-50; and Govan, V A; Allsopp, M H; Davison, S A (1999) PCR Detection Method for Rapid Identification of Paenibacillus larvae. Applied and Environmental Microbiology 65(5): 2243-2245.
(§2) The plates were incubated at 33° C. in air containing 6% CO2 and 95% RH. The initial species identification was based on morphological, biological and cultural characteristics. The bacterial culture was tested for a catalase reaction (Leboffe, M. J and Pierce, B e (1999) A photographic atlas for the microbiology laboratory. Morton Publishing Company. 254 pp). The bacterial colonies were characterized by shape, margins and color. Gram-positive stained smears (Gram-stain Reagents Kit, EMD Chemicals Inc., NJ) were examined for morphological identification of vegetative cells and spores.
(§3) DNA based PCR identification was performed to corroborate identification of the bacterial species. Bacterial cells from culture plates were added directly to 30 μl of PCR reaction. The PCR primers used in the reaction were based on the 16S RNA sequence to selectively amplify a fragment of 973 by unique to P. larvae (Govan et al., 1999). The PCR products were visualized by 0.8% agarose gel electrophoresis in TAE buffer and ethidium bromide staining. The reference strains of bacteria were used as a control in PCR reactions and were provided by the National Center for Agricultural Research, Peoria, Ill. P. l. larvae (NRRL B-3560, B-2605) and P. l. palvifaciens (NRRL B-3688, B-3685, B-3689, NRS-1687, P. alvei B383).
(§4) Positive controls contained the antibiotic Tylosin (Tylan® 50, Elanco Animal Health Inc., IN) and negative controls contained no antibiotics. […] The optical densities of cultures (OD 600) were recorded 24 h and 48 h post inoculation, depending on the growth rate of the microbial species. […] Minimum bactericidal concentration values (NBC) were determined for allicin by plating out 100 μl of bacterial cultures derived from the MIC assay. […]

[2] = system: Paenibacillus larvae subsp. pulvifaciens; test: MIC by broth microdilution, bee pathogens; conditions: range 1000 ppm to 0.25 ppm
Excerpt: as §1, §2, §3, §4

[3] = system: Ascosphaera aggregata; test: Disk diffusion test (Kirby-Bauer), zone of inhibition; conditions: 6 mm paper disc containing 5 μg of tylosin
Description: (§5) Allicin (Allisure™ Liquid) was tested against bacterial and fungal pathogens using a standard disk diffusion method (per Norrell & Messley). The aliquots of bacterial or fungal spores (100 μl of approximately 10^8-10^9 spores/ml) were plated on Mueller-Hinton agar medium, 4.0 mm depth. The 6 mm paper discs containing 250 μg of allicin or 5 μg of tylosin (positive control) were placed in the center of each plate. Plates were incubated at 33° C. and 6% CO2 and a zone of inhibition was measured 24 h, 48 h or 76 h post inoculation depending on the microbial species. All experiments were replicated at least three times.

[4] = system: Ascosphaera apis; test: as above; conditions: 6 mm paper disc containing 5 μg of tylosin
Description: as §5

[5] = system: Paenibacillus larvae subsp. larvae; test: as above; conditions: 6 mm paper disc containing 5 μg of tylosin
Description: as §5

[6] = system: Paenibacillus larvae subsp. pulvifaciens; test: as above; conditions: 6 mm paper disc containing 5 μg of tylosin
Description: as §5

With `CC[C@H]1OC(=O)C[C@@H](O)[C@H](C)[C@@H](O[C@@H]2O[C@H](C)[C@@H](O[C@H]3C[C@@](C)(O)[C@@H](O)[C@H](C)O3)[C@H](N(C)C)[C@H]2O)[C@@H](CC=O)C[C@@H](C)C(=O)/C=C/C(C)=C/[C@@H]1CO[C@@H]1O[C@H](C)[C@@H](O)[C@@H](OC)[C@H]1OC` [tylosin, reference compound] the MIC [1] was < 0.25 µg/mL, the MIC [2] was < 0.25 µg/mL and the zone of inhibition [3] was 0.0 mm. The zone of inhibition [4] was 0.0 mm, the “growth inhibition in agar diffusion test” value [5] was “completely inhibited” and the zone of inhibition [6] was 14-16 mm.
